Data on eleven molecules can be found in patent US12557811B2, “Effective and eco-friendly disinfectant” (The Hong Kong University of Science and Technology, priority 2022, dated 2026).

Read-outs that look alike come from different tables or passages of the source.

By half-life is commonly meant the time in which the quantity being followed falls by half.

Data set [1] is described as follows: Degradation kinetics with solar irradiation.
A further data set deals with E. coli. The data set can be described thus: Disinfection experiments, membrane filter enumeration, E. coli. Type of data set: cell-based, Escherichia coli. The protocol:
Disinfection experiments were performed in phosphate buffer saline (PBS; 10 mM, pH 7.2) with an initial concentration of E. coli of 10^6-10^7 colony forming units per milliliter (CFU mL^−1). Different concentrations of disinfection byproducts were added to the cell suspensions individually at room temperature (˜22° C.) with a contact time of 5 min. After the given contact time, the microorganism cells were enumerated following a membrane filter method. Briefly, serial ten-fold dilutions were conducted for the disinfected samples and the control sample without disinfection. Each diluted suspension was subjected to filtration through 0.45-μm membrane, which was then placed on a petri dish containing m-FC medium. After incubation at 45° C. for 24 hours, the colony forming units within a statistically reasonable range (20-80) were counted. The disinfection experiments were performed in duplicate. All the materials for the disinfection experiments were autoclaved at 121° C. for 15 min and cooled to room temperature before use.
(§1) The disinfection experiments were performed in PBS solutions (10 mM, pH 7.2) with an initial concentration of E. coli, S. aureus, or C. albicans of 10^6-10^7 CFU mL^−1. Different concentrations of 2,6-DCQ or PCMX were added to the cell suspensions at room temperature (˜22° C.) After the given contact time (i.e., 5 min), the microorganism cells were enumerated following a membrane filter method. Briefly, serial ten-fold dilutions were conducted for the disinfected samples and the control sample without disinfection. Each diluted suspension was filtered through a 0.45-μm filter paper, which was then placed on a petri dish. The petri dishes containing E. coli, S. aureus, and C. albicans were incubated in m-FC medium at 45° C. for 24 h, Tryptone Soya broth at 37° C. for 24 h, and Sabouraud Dextrose broth at 37° C. for 24 h, respectively. After incubation, the colony forming units within a statistically reasonable range (20-80) were counted. The disinfection experiments were performed in duplicate. All the materials for the disinfection experiments were autoclaved at 121° C. for 15 min and cooled to room temperature before use.
The disinfection experiments were performed in PBS solutions (10 mM, pH 7.2) with an initial concentration of E. coli of 10^6-10^7 CFU mL^−1. 2,5-Dichloro-1,4-benzoquinone (7.5 and 15 mg L^−1) or 2,6-DCQ (7.5 and 15 mg L^−1) was added to the cell suspensions at room temperature (˜22° C.). After the given contact time (i.e., 5 min), the microorganism cells were enumerated following a membrane filter method. Briefly, serial ten-fold dilutions were conducted for the disinfected samples and the control sample without disinfection. Each diluted suspension was subjected to filtration through 0.45-μm membrane, which was then placed on a petri dish. The petri dishes containing E. coli were incubated in m-FC medium at 45° C. for 24 hours. After incubation, the colony forming units within a statistically reasonable range (20-80) were counted. The disinfection experiments were performed in duplicate. All the materials for the disinfection experiments were autoclaved at 121° C. for 15 min and cooled to room temperature before use.
The disinfection experiments were performed in PBS solutions (10 mM, pH 7.2) with an initial concentration of E. coli of 10^6-10^7 CFU mL^−1. 2,6-DBQ (2,6-dibromo-1,4-benzoquinone), 2,6-DIQ (2,6-diiodo-1,4-benzoquinone), or 2,6-DCQ was added to the cell suspensions at room temperature (˜22° C.) with a contact time of 5 min. After the given contact time, the microorganism cells were enumerated following a membrane filter method. Briefly, serial ten-fold dilutions were conducted for the disinfected samples and the control sample without disinfection. Each diluted suspension was subjected to filtration through 0.45-μm membrane, which was then placed on a petri dish. The petri dishes containing E. coli were incubated in m-FC medium at 45° C. for 24 hours.

The nature of data set [2]: Degradation kinetics without solar irradiation (darkness). Type of data set: physicochemical.
A further data set has as its system S. aureus. The data set can be described thus: Disinfection experiments, membrane filter enumeration, S. aureus. Type of data set: cell-based, Staphylococcus aureus. Conditions: for inactivation rate constant / Dose for achieving 3-log (99.9%) inactivation: S. aureus. The protocol:
as §1

A further data set concerns C. albicans. The data set can be described thus: Disinfection experiments, membrane filter enumeration, C. albicans. Conditions: for inactivation rate constant / Dose for achieving 3-log (99.9%) inactivation: C. albicans. The format is cell-based, Candida albicans. Here is the method:
as §1

Data set [3] is described as follows: Storage stability in solid form or in an organic solvent. The format is physicochemical.
For data set [4], the system named is E. coli, S. aureus and C. albicans. The data set can be described thus: Disinfection experiments, comparison across the three types of pathogens. The format is cell-based, Escherichia coli, Staphylococcus aureus, Candida albicans. The protocol: as §1
Another data set deals with P. dumerilii embryos. The data set can be described thus: P. dumerilii embryo developmental toxicity. The format is in vivo, Platynereis dumerilii. The text has this: The doses of 2,6-DCQ and PCMX for 3-log E. coli inactivation (pH 7.2) were set as the in-use concentrations, which were serially diluted and added to the embryos of a marine polychactc, Platynereis dumerilii, at 12-hour postfertilization. A dilution factor was defined as the ratio of the in-use concentration to the exposure concentration. Each exposure set contained a control sample (i.e., the embryos at 12-hour postfertilization developed in seawater). By 24-hour postfertilization, normally developed embryos should have reached the first larval stage. An inverted stereomicroscope (40× magnification) was used to observe the larvae. The normal development percentage was calculated as the ratio of normally developed embryos to total embryos. By plotting the curve of the normal development percentage versus the dilution factor, the EC50,DF value (i.e., the dilution factor corresponding to 50% of the normal development percentage of the control sample) was obtained using SigmaPlot 12. The developmental toxicity test was conducted in duplicate.

A further data set concerns zebrafish embryos. As to conditions: in vivo; cited from earlier work.
The subject of the next data set is rainbow trout. As to conditions: environmentally relevant concentrations (˜4.2 μg L^−1); cited from earlier work.
In data set [5] the test system is antibiotic resistance genes. As to conditions: environmentally relevant concentrations; cited from earlier work.
[6] abbreviates: pH not given, read-out: Half-life, without solar irradiation (converted).

Regarding `Oc1ccc(Br)cc1Br` [2,4-Dibromophenol, 2,4-dibromophenol], the half-life in [1] is 35 h. The “k, degradation, with solar irradiation” value in data set [1] (pH not given) is 0.0201 h⁻¹.

For `Oc1ccc(Cl)cc1Cl` [2,4-Dichlorophenol, 2,4-dichlorophenol], in data set [1] (pH not given), the “k, degradation, with solar irradiation” value turned out to be 0.0157 h⁻¹. This molecule gave a half-life in the data set “physchem” of 44 h.

Turning to `Oc1ccc(I)cc1I` [2,4-Diiodophenol, 2,4-diiodophenol], in [1] (pH not given), the “Half-life, with solar irradiation” value came to 83 h and the “k, degradation, with solar irradiation” value was 0.0083 h⁻¹.

Take `O=C1C=C(Cl)C(=O)C=C1Cl` [2,5-DCQ, 2,5-dichloro-1,4-benzoquinone]: in the data set on E. coli (pH 7.2), the “disinfection efficacy compared with 2,6-DCQ” value was “comparable disinfection efficacy”.

Turning to `Oc1cc(Br)c(O)cc1Br` [2,5-Dibromohydroquinone, 2,5-dibromohydroquinone], the half-life in [1] and in [2] (setting [6]) was 0.15 h throughout. Moreover, in data set [1] (pH not given), the “k, degradation, with solar irradiation” value was found to be 0.787 h⁻¹. Moreover, in data set [2] (pH not given), the “k, degradation, without solar irradiation” value worked out at 0.0767 h⁻¹.

For `Oc1cc(Cl)c(O)cc1Cl` [2,5-Dichlorohydroquinone, 2,5-dichlorohydroquinone], the half-life in data set [1] was 0.11 h; in data set [2] (setting [6]), 0.13 h. Besides, the “k, degradation, with solar irradiation” value in [1] (pH not given) was 0.101 h⁻¹. Also, in data set [2] (pH not given), the “k, degradation, without solar irradiation” value is 0.0922 h⁻¹.

In the case of `Oc1cc(I)c(O)cc1I` [2,5-Diiodohydroquinone, 2,5-diiodohydroquinone], the half-life in data set [1] and in data set [2] (setting [6]) was 0.15 h each time. The “k, degradation, with solar irradiation” value in data set [1] (pH not given) was 0.756 h⁻¹. The “k, degradation, without solar irradiation” value in data set [2] (pH not given) amounted to 0.078 h⁻¹.

For the molecule `O=C1C=C(Br)C(=O)C(Br)=C1` [2,6-DBQ, 2,6-dibromo-1,4-benzoquinone], the “disinfection efficacy compared with 2,6-DCQ” value with E. coli (pH 7.2) is “comparable disinfection efficacy”.

Regarding `O=C1C=C(Cl)C(=O)C(Cl)=C1` [2,6-DCQ, 2,6-dichloro-1,4-benzoquinone], the inactivation rate constant in the data set on S. aureus was 20000 µL/min/mg; in the data set with S. aureus (pH 7.2, contact time 5 min), 20000 µL/min/mg; with C. albicans, 31200 µL/min/mg; in the data set on C. albicans (pH 7.2, contact time 5 min), 31200 µL/min/mg; in the data set on E. coli, 91700 µL/min/mg; with E. coli (pH 7.2), 91700 µL/min/mg. Besides, the “Dose for achieving 3-log (99.9%) inactivation” value turned out to be 29.4 mg/L in the data set with S. aureus (pH 7.2, contact time 5 min); 35.7 mg/L with C. albicans (pH 7.2, contact time 5 min); 12.8 mg/L with E. coli (pH 7.2). Also, the inactivation is 99.9% with S. aureus (Staphylococcus aureus ATCC 25923, contact time of 5 minutes); 99.9% in the data set with C. albicans (Candida albicans ATCC 14053, contact time of 5 minutes); 99.9% in the data set with E. coli. Further, the “Half-life, with solar irradiation” value in [1] (pH 6.2) was 4.13 h; in data set [1] (pH 8.2), 1.33 h. Besides, the entries for the “k, degradation, with solar irradiation” value in data set [1] (pH 6.2), in [1] (pH 7.2) and in [1] (pH 8.2) were 0.17 h⁻¹, 0.22 h⁻¹ and 0.52 h⁻¹, respectively. In addition, in [1] (pH 7.2), the “half-life under solar irradiation” value stood at 3.20 h. Moreover, in [1] (seawater (pH 8.2), with and without solar irradiation), the “half-lives, times shorter than those of PCMX” value is “about 200 times”. Besides, the “dose required for 99.9% inactivation, times lower than those of the other nine disinfection byproducts” value in the data set on E. coli (E. coli, contact time of 5 minutes) is 8.8-500 times. For the same molecule, the “inactivation rate constant, times greater than those of other disinfection byproducts” value with E. coli (E. coli, versus the other nine disinfection byproducts) is 8.8-500 times. In addition, the half-life was 65.5 h in data set [2] (buffer, pH 6.2, read-out: half-life in darkness (converted)) and 15.1 h in data set [2] (buffer, pH 7.2, read-out: half-life in darkness (converted)). The “Half-life, without solar irradiation” value in data set [2] (pH 6.2) was 65.5 h; in data set [2] (pH 7.2) it was 15.1 h; in [2] (pH 8.2), 1.74 h. Further, the “k, degradation, without solar irradiation” value in data set [2] (pH 6.2) is 0.010 h⁻¹; in data set [2] (pH 7.2), 0.046 h⁻¹; in data set [2] (pH 8.2), 0.397 h⁻¹. In addition, in [3], the time remaining stable result is “at least 24 months”. Moreover, the “disinfection efficacy, times higher than PCMX” value in [4] was 10-15 times. The “reduction of disinfectant doses for 99.9% inactivation by switching from PCMX to 2,6-DCQ” value in data set [4] (E. coli, S. aureus and C. albicans) was 89-93%. Moreover, the “in-use doses for 99.9% inactivation, times lower than the corresponding doses of PCMX” value in [4] (E. coli, S. aureus and C. albicans, contact time 5 min) was 10-15 times. Moreover, the “developmental toxicity, times lower than PCMX” value with P. dumerilii embryos (48 hours after discharge into seawater) is 31 times. In the data set with P. dumerilii embryos (after 2 hours of degradation in seawater), the “developmental toxicity compared with PCMX” value is on record as “lower developmental toxicity”.

As for `O=C1C=C(I)C(=O)C(I)=C1` [2,6-DIQ, 2,6-diiodo-1,4-benzoquinone], in the data set with E. coli (pH 7.2), the “disinfection efficacy compared with 2,6-DCQ” value is on record as “comparable disinfection efficacy”.

As for “para-chloro-meta-xylenol [PCMX, reference compound]”, in the data set with zebrafish embryos, the “adverse effects in zebrafish embryos” value was “mortality, morphological malformations, and neurotoxicity”. Besides, the inactivation rate constant in the data set on S. aureus was found to be 3500 µL/min/mg; in the data set on S. aureus (pH 7.2, contact time 5 min), 3500 µL/min/mg; with C. albicans, 3500 µL/min/mg; in the data set on C. albicans (pH 7.2, contact time 5 min) it was 3500 µL/min/mg; in the data set on E. coli (E. coli), 11000 µL/min/mg; in the data set on E. coli (E. coli, pH 7.2, contact time 5 min), 11000 µL/min/mg. Also, the “Dose for achieving 3-log (99.9%) inactivation” value in the data set on S. aureus (pH 7.2, contact time 5 min) stood at 312 mg/L; with C. albicans (pH 7.2, contact time 5 min) it was 325 mg/L; with E. coli (pH 7.2), 188 mg/L. Moreover, the “Half-life, with solar irradiation” value in data set [1] (pH 8.2) was found to be 257 h. The “k, degradation, with solar irradiation” value in [1] (pH 8.2) came out at 0.0027 h⁻¹. The “half-life under solar irradiation” value in data set [1] (pH 8.2, seawater pH) amounted to 257 h. Further, the “effects of chronic exposure in rainbow trout” value in the data set on rainbow trout is “gene regulation and morphological changes”. Also, the “Half-life, without solar irradiation” value is 5578 h in data set [2] (pH 8.2) and ~5760 h in [2] (seawater pH (pH 8.2)). Also, the “k, degradation, without solar irradiation” value in [2] (pH 8.2) was found to be 0.00012 h⁻¹. Also, the “in-use doses for 99.9% inactivation, times higher than those of 2,6-DCQ” value in data set [4] (three types of pathogens, contact time 5 min) is recorded as 10-15 times. The “effect on antibiotic resistance genes” value in data set [5] is recorded as “promote the spread of antibiotic resistance genes”.
